Key:
Type in all cases: cell-based
Details in all cases: fluorescent calcium assay
TRPML2 = target: T1, TRPML2 (Homo sapiens, UniProt Q8IZK6); test: Fluorescent TRPML2 assay (performed as for TRPML1, substituting the TRPML2 subtype)
T1 construct: expressed in transfected cells
T1 sequence (Q8IZK6 1-566): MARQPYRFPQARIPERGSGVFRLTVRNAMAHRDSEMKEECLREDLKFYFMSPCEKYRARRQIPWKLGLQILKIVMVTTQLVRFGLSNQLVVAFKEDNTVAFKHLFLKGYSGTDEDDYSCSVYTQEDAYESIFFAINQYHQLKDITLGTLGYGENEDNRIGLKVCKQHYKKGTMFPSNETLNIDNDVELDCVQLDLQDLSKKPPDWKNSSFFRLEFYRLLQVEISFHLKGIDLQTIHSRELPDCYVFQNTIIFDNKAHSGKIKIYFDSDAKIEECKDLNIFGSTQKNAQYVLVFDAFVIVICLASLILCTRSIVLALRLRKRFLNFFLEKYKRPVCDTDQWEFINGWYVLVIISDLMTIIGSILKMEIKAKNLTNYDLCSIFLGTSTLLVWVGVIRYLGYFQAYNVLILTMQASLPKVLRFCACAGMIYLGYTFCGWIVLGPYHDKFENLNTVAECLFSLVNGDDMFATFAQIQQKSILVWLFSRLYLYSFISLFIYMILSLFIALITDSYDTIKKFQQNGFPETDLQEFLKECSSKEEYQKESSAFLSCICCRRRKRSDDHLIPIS
In short: (§1)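 HEK-293 Trex, dox-induced (0.5 ug/mL), mutated for surface expression. Fluo4-AM 1 micromolar load ~60 min, dark; buffer modified Ringer's, 10 mM Ca. Cpds 20 micromolar–6 nanomolar final, half-log, n=3. Read ex 480/em 540; % activity vs controls; EC50 nonlinear fit.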

TRPML1 = TRPML1 (Homo sapiens, UniProt Q9GZU1); test: Fluorescent TRPML1 assay (Fluo4-AM calcium fluorescence in doxycycline-induced HEK-293 Trex cells)
Sequence of TRPML1 (Q9GZU1 whole entry L15A/L16A/L577A/L578A, form open): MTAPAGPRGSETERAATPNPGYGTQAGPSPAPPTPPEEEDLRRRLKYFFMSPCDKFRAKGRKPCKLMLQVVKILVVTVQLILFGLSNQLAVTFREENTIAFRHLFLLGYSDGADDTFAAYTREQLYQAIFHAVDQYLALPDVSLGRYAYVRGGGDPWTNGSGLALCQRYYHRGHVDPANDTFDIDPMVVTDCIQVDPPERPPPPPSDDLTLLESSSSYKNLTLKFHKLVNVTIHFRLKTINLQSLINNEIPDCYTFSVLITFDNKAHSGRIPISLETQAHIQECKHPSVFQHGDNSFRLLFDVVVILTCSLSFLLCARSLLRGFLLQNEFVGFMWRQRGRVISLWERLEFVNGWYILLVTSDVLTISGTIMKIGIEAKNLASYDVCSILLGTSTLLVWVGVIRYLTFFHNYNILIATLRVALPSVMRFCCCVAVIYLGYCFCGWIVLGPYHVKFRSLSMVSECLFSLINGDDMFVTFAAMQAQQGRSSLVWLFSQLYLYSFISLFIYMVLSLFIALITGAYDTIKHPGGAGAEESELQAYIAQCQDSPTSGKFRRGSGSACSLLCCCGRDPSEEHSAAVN
In short: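 HEK-293 Trex cells stably carrying human TRPML1 (surface-trafficking mutant) were induced overnight with 0.5 ug/mL doxycycline, loaded with 1 micromolar Fluo4-AM, and suspended in Ringer's with 10 mM calcium. Compounds at 20 micromolar to 6 nanomolar final, half-log steps, triplicate; fluorescence 480/540 nm gave percent activity versus controls and EC50 by non-linear regression.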

TRPML3 = target: T2, TRPML3 (Homo sapiens, UniProt Q8TDD5); test: Fluorescent TRPML3 assay (performed as for TRPML1, substituting the TRPML3 subtype)
T2 construct: expressed in transfected cells
T2 sequence (Q8TDD5 1-553): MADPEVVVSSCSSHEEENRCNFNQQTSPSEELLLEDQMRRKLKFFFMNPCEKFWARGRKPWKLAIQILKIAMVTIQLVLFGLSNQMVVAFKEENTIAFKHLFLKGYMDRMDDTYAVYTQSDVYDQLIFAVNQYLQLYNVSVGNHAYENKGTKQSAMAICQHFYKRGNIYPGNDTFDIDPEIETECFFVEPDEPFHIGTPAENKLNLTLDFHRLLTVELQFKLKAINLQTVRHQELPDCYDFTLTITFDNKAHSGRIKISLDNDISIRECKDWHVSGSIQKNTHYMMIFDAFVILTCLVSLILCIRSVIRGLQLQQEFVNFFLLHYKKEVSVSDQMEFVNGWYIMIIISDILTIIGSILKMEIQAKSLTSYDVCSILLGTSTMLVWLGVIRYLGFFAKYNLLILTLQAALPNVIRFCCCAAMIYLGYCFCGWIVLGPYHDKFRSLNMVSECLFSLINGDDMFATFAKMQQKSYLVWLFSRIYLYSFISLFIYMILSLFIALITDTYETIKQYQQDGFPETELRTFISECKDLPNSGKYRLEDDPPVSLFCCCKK
In short: as §1

Row | EC50 (TRPML2) | EC50 (TRPML1) | EC50 (TRPML3) | Structure (SMILES)
1 | 500 to 2000 nM | 100 to 500 nM | 100 to 500 nM | C[C@H]1CN(C(=O)OC(C)(C)C)CCN1c1ncnc2c1c(-c1cccnc1)cn2-c1cc(F)cc(F)c1 [Compound 213, tert-butyl-(S)-4-(7-(3,5-difluorophenyl)-5-(pyridin-3-yl)-7H-pyrrolo[2,3-d]pyrimidin-4-yl)-3-methylpiperazine-1-carboxylate]
2 | 500 to 2000 nM | 100 to 500 nM | 100 to 500 nM | C[C@@H]1CN(c2ncnc3c2c(-c2cccnc2)cn3-c2cc(F)cc(F)c2)CCN1C(=O)OC(C)(C)C [Compound 214, tert-butyl (R)-4-(7-(3,5-difluorophenyl)-5-(pyridin-3-yl)-7H-pyrrolo[2,3-d]pyrimidin-4-yl)-2-methylpiperazine-1-carboxylate]
3 | 500 to 2000 nM | 100 to 500 nM | 100 to 500 nM | C[C@@H]1CN(c2ncnc3c2c(-c2ccccn2)cn3-c2cc(F)cc(F)c2)CCN1C(=O)OC(C)(C)C [Compound 215, tert-butyl (R)-4-(7-(3,5-difluorophenyl)-5-(pyridin-2-yl)-7H-pyrrolo[2,3-d]pyrimidin-4-yl)-2-methylpiperazine-1-carboxylate]
4 | 500 to 2000 nM | < 100 nM | 100 to 500 nM | C[C@@H]1CN(c2ncnc3c2c(-c2ccncc2)cn3-c2cc(F)cc(F)c2)CCN1C(=O)OC(C)(C)C [Compound 216, tert-butyl (R)-4-(7-(3,5-difluorophenyl)-5-(pyridin-4-yl)-7H-pyrrolo[2,3-d]pyrimidin-4-yl)-2-methylpiperazine-1-carboxylate]
5 | 500 to 2000 nM | 100 to 500 nM | 100 to 500 nM | C[C@H]1CN(C(=O)OC(C)(C)C)CCN1c1ncnc2c1c(C1CC1)cn2-c1cccc(F)c1F [Compound 217, tert-butyl (S)-4-(5-cyclopropyl-7-(2,3-difluorophenyl)-7H-pyrrolo[2,3-d]pyrimidin-4-yl)-3-methylpiperazine-1-carboxylate]
6 | 500 to 2000 nM | < 100 nM | < 100 nM | C[C@H]1CN(C(=O)OC(C)(C)C)CCN1c1ncnc2c1c(C1CC1)cn2-c1cc(F)ccc1F [Compound 218, tert-butyl (S)-4-(5-cyclopropyl-7-(2,5-difluorophenyl)-7H-pyrrolo[2,3-d]pyrimidin-4-yl)-3-methylpiperazine-1-carboxylate]
7 | 100 to 500 nM | < 100 nM | < 100 nM | C[C@H]1CN(C(=O)OC(C)(C)C)CCN1c1ncnc2c1c(C1CC1)cn2-c1ccc(F)c(F)c1 [Compound 219, tert-butyl (S)-4-(5-cyclopropyl-7-(3,4-difluorophenyl)-7H-pyrrolo[2,3-d]pyrimidin-4-yl)-3-methylpiperazine-1-carboxylate]
8 | 100 to 500 nM | < 100 nM | < 100 nM | C[C@@H]1CN(c2ncnc3c2c(C2CC2)cn3-c2cccc(Cl)c2F)CCN1C(=O)OC(C)(C)C [Compound 220, tert-butyl (R)-4-(7-(3-chloro-2-fluorophenyl)-5-cyclopropyl-7H-pyrrolo[2,3-d]pyrimidin-4-yl)-2-methylpiperazine-1-carboxylate]
9 | 100 to 500 nM | < 100 nM | < 100 nM | C[C@@H]1CN(c2ncnc3c2c(-c2ccccn2)cn3-c2cc(F)cc(Cl)c2)CCN1C(=O)OC(C)(C)C [Compound 221, tert-butyl (R)-4-(7-(3-chloro-5-fluorophenyl)-5-(pyridin-2-yl)-7H-pyrrolo[2,3-d]pyrimidin-4-yl)-2-methylpiperazine-1-carboxylate]
10 | 500 to 2000 nM | < 100 nM | < 100 nM | C[C@@H]1CN(c2ncnc3c2c(-c2cccnc2)cn3-c2cc(F)cc(Cl)c2)CCN1C(=O)OC(C)(C)C [Compound 222, tert-butyl (R)-4-(7-(3-chloro-5-fluorophenyl)-5-(pyridin-3-yl)-7H-pyrrolo[2,3-d]pyrimidin-4-yl)-2-methylpiperazine-1-carboxylate]
11 | 500 to 2000 nM | 100 to 500 nM | 100 to 500 nM | C[C@@H]1CN(c2ncnc3c2c(-c2cnccn2)cn3-c2cc(F)cc(Cl)c2)CCN1C(=O)OC(C)(C)C [Compound 223, tert-butyl (R)-4-(7-(3-chloro-5-fluorophenyl)-5-(pyrazin-2-yl)-7H-pyrrolo[2,3-d]pyrimidin-4-yl)-2-methylpiperazine-1-carboxylate]

More lines, now with the values behind:

Row | Structure (SMILES) | EC50 (TRPML2) | EC50 (TRPML1) | EC50 (TRPML3)
12 | C[C@@H]1CN(c2ncnc3c2c(C2CC2)cn3-c2cccc(F)c2F)CCN1C(=O)OC(C)(C)C [Compound 205, tert-butyl (R)-4-(5-cyclopropyl-7-(2,3-difluorophenyl)-7H-pyrrolo[2,3-d]pyrimidin-4-yl)-2-methylpiperazine-1-carboxylate] | 500 to 2000 nM | 100 to 500 nM | 100 to 500 nM
13 | C[C@@H]1CN(c2ncnc3c2c(C2CC2)cn3-c2cc(F)ccc2F)CCN1C(=O)OC(C)(C)C [Compound 206, tert-butyl (R)-4-(5-cyclopropyl-7-(2,5-difluorophenyl)-7H-pyrrolo[2,3-d]pyrimidin-4-yl)-2-methylpiperazine-1-carboxylate] | 500 to 2000 nM | < 100 nM | 100 to 500 nM
14 | C[C@@H]1CN(c2ncnc3c2c(C2CC2)cn3-c2cc(F)c(F)c(Cl)c2)CCN1C(=O)OC(C)(C)C [Compound 207, tert-butyl (R)-4-(7-(3-chloro-4,5-difluorophenyl)-5-cyclopropyl-7H-pyrrolo[2,3-d]pyrimidin-4-yl)-2-methylpiperazine-1-carboxylate] | 100 to 500 nM | < 100 nM | < 100 nM
15 | C[C@@H]1CN(c2ncnc3c2c(C2CC2)cn3-c2ccc(F)c(Cl)c2)CCN1C(=O)OC(C)(C)C [Compound 208, tert-butyl (R)-4-(7-(3-chloro-4-fluorophenyl)-5-cyclopropyl-7H-pyrrolo[2,3-d]pyrimidin-4-yl)-2-methylpiperazine-1-carboxylate] | 100 to 500 nM | < 100 nM | < 100 nM
16 | C[C@@H]1CN(C(=O)OC(C)(C)C)CCN1c1ncnc2c1c(N1CCCC1)cn2-c1cccc(Cl)c1 [Compound 209, tert-Butyl (R)-4-(7-(3-chlorophenyl)-5-(pyrrolidin-1-yl)-7H-pyrrolo[2,3-d]pyrimidin-4-yl)-3-methylpiperazine-1-carboxylate] | 100 to 500 nM | < 100 nM | < 100 nM
17 | C[C@H]1CN(C(=O)OC(C)(C)C)CCN1c1ncnc2c1c(N1CCCC1)cn2-c1cccc(Cl)c1 [Compound 210, tert-Butyl (S)-4-(7-(3-chlorophenyl)-5-(pyrrolidin-1-yl)-7H-pyrrolo[2,3-d]pyrimidin-4-yl)-3-methylpiperazine-1-carboxylate] | < 100 nM | < 100 nM | < 100 nM
18 | C[C@@H]1CN(C(=O)OC(C)(C)C)CCN1c1ncnc2c1c(C1CC1)cn2-c1cc(F)cc(F)c1 [Compound 211, tert-butyl (R)-4-(5-cyclopropyl-7-(3,5-difluorophenyl)-7H-pyrrolo[2,3-d]pyrimidin-4-yl)-3-methylpiperazine-1-carboxylate] | 500 to 2000 nM | 100 to 500 nM | < 100 nM
19 | C[C@H]1CN(C(=O)OC(C)(C)C)CCN1c1ncnc2c1c(-c1cccnc1)cn2-c1ccc(F)c(Cl)c1 [Compound 212, tert-butyl (S)-4-(7-(3-chloro-4-fluorophenyl)-5-(pyridin-3-yl)-7H-pyrrolo[2,3-d]pyrimidin-4-yl)-3-methylpiperazine-1-carboxylate] | 100 to 500 nM | < 100 nM | < 100 nM
